The experiment has as its target T1, Lin28 (Homo sapiens, UniProt Q9H9Z2).
T1 construct: gene LIN28A; recombinant, N-terminal GST tag; multimeric on pre-let-7
T1 sequence (Q9H9Z2 1-209): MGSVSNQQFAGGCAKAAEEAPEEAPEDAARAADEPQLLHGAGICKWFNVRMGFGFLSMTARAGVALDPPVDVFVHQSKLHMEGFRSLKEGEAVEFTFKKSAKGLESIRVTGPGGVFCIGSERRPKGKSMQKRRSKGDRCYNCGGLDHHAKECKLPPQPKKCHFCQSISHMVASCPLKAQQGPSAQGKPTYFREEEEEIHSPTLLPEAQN
Kind of experiment: fluorescence polarization displacement of fluorescein-labelled tpre-let-7g RNA. Type of experiment: binding. (In general: In fluorescence polarisation assays a small probe gives low polarisation when free and higher when bound to something large.)

Read-outs that look alike come from different tables or passages of the source.

In general, IC50 refers to the concentration that inhibits the measured activity by half. Take `NC(Cc1cc(O)c(O)cc1O)C(=O)O` (racemic) [compound 10, 6-hydroxy-DL-DOPA]: the IC50 worked out at 7.05 ± 0.13 µM.
As for `Nc1c(S(=O)(=O)O)cc(Nc2ccc(S(=O)(=O)O)c(Nc3nc(Cl)nc(Cl)n3)c2)c2c1C(=O)c1ccccc1C2=O` [11b, Reactive Blue 4], the IC50 (read-out: IC50) turned out to be 10.75 ± 0.1 µM.
On the same count and under the same terms, the figure for `O=C(O)C1=CC(=C(c2ccc(O)c(C(=O)O)c2)c2ccc(O)c(C(=O)O)c2)C=CC1=O` [compound 4, Aurintricarboxylic acid] is 1.18 ± 0.23 µM; for `O=C(O)c1ccc2nc3c4c(O)ccc(O)c4c(=O)c(Cl)c-3oc2c1` [compound 14, SB/ZW/0065] it is 4.71 ± 0.16 µM.
